Source: article PMC9694777, “Fractionation and Extraction Optimization of Potentially Valuable Compounds and Their Profiling in Six Varieties of Two Nicotiana Species” (Molecules, 2022)
In brackets after ≈: the same amount, converted by molar mass.

Assay: physchem
Excerpt: Determination of the small molecule content in a complex plant matrix depends on the understanding of minimum solubility in the chosen extraction solvent. […] Often, tests on mixture are hardly reproducible on pure compounds if this aspect is not routinely considered in the workflow. We performed a general testing of best solvent systems to compare a wide range of small molecules of interest to understand the limitations of general approaches within a complex plant matrix such as Nicotiana.
For each of the 29 reference compounds, 2 mg was weighed into a 15 mL glass tube and dissolved in the minimum amount of the test solvent by gradually adding the solvent with a micropipette until complete dissolution or to a final volume of 10.0 mL. Seven solvents with polarities from nonpolar to polar were chosen for the test: hexane (C6H14), CH2Cl2, CH2Cl2/MeOH (4:1, v/v), EtOH, MeOH, MeOH/H2O (7:3, v/v), and H2O. The consumed solvents and their volumes were recorded for each reference compound.

[1] = 22 °C, organic solvent or mixture, thermodynamic from solid, Solubility in C6H14
[2] = 22 °C, organic solvent or mixture, thermodynamic from solid, Solubility in CH2Cl2
[3] = 22 °C, organic solvent or mixture, thermodynamic from solid, Solubility in EtOH
[4] = 22 °C, organic solvent or mixture, thermodynamic from solid, Solubility in MeOH/H2O (7:3)
[5] = 22 °C, organic solvent or mixture, thermodynamic from solid, Solubility in C6H14, solvent hexane (C6H14); room temperature (21–23 °C); 2 mg compound, solvent added until dissolution or 10.0 mL
[6] = 22 °C, organic solvent or mixture, thermodynamic from solid, Solubility in CH2Cl2, solvent dichloromethane (CH2Cl2); room temperature (21–23 °C)
[7] = 22 °C, organic solvent or mixture, thermodynamic from solid, Solubility in CH2Cl2/MeOH (4:1), solvent CH2Cl2/MeOH (4:1, v/v); room temperature (21–23 °C)
[8] = 22 °C, organic solvent or mixture, thermodynamic from solid, Solubility in EtOH, solvent ethanol; room temperature (21–23 °C)
[9] = 22 °C, organic solvent or mixture, thermodynamic from solid, Solubility in MeOH, solvent methanol; room temperature (21–23 °C)
[10] = 22 °C, organic solvent or mixture, thermodynamic from solid, Solubility in MeOH/H2O (7:3), solvent MeOH/H2O (7:3, v/v); room temperature (21–23 °C)
[11] = 22 °C, water, thermodynamic from solid, Solubility in H2O, solvent water; room temperature (21–23 °C)
[12] = solvent MeOH/H2O (7:3, v/v); room temperature (21–23 °C)
[13] = solvent ethanol; room temperature (21–23 °C)
[14] = solvent methanol; room temperature (21–23 °C)
[15] = solvent water; room temperature (21–23 °C)
[16] = CH2Cl2/MeOH (4:1, v/v), 22 °C, organic solvent or mixture, thermodynamic from solid, Solubility in CH2Cl2/MeOH (4:1), solvent CH2Cl2/MeOH (4:1, v/v); room temperature (21–23 °C)
[17] = MeOH/H2O (7:3, v/v), 22 °C, organic solvent or mixture, thermodynamic from solid, Solubility in MeOH/H2O (7:3), solvent MeOH/H2O (7:3, v/v); room temperature (21–23 °C)
[18] = dichloromethane (CH2Cl2), 22 °C, organic solvent or mixture, thermodynamic from solid, Solubility in CH2Cl2, solvent dichloromethane (CH2Cl2); room temperature (21–23 °C)
[19] = ethanol, 22 °C, organic solvent or mixture, thermodynamic from solid, Solubility in EtOH, solvent ethanol; room temperature (21–23 °C)
[20] = methanol, 22 °C, organic solvent or mixture, thermodynamic from solid, Solubility in MeOH, solvent methanol; room temperature (21–23 °C)
[21] = water, 22 °C, thermodynamic from solid, Solubility in H2O, solvent water; room temperature (21–23 °C)
[22] = hexane (C6H14), 22 °C, organic solvent or mixture, thermodynamic from solid, Solubility in C6H14, solvent hexane (C6H14); room temperature (21–23 °C); 2 mg compound, solvent added until dissolution or 10.0 mL
[23] = solvent CH2Cl2/MeOH (4:1, v/v); room temperature (21–23 °C)

| Compound | solubility [5] [mg/mL] | solubility [6] [mg/mL] | solubility [8] [mg/mL] | solubility [9] [mg/mL] | solubility [10] [mg/mL] | solubility [11] [mg/mL] | solubility [20] [mg/mL] | solubility [21] [mg/mL] | solubility [22] [mg/mL] | also measured |
| --- | --- | --- | --- | --- | --- | --- | --- | --- | --- | --- |
| c1cncc([C@@H]2CCCCN2)c1 [Anabasine] |  |  |  |  |  |  |  |  |  | Solubility in CH2Cl2/MeOH (4:1): 70.0 mg/mL (≈ 431 mM); solubility [1]: < 0.19 mg/mL; solubility [2]: 10.3 mg/mL (≈ 63.5 mM); solubility (22 °C, organic solvent or mixture, thermodynamic from solid, Solubility in CH2Cl2/MeOH (4:1)): < 100 mg/mL; solubility [3]: 97 mg/mL (≈ 598 mM); solubility (22 °C, organic solvent or mixture, thermodynamic from solid, Solubility in MeOH): 103 mg/mL (≈ 635 mM); solubility [4]: 109 mg/mL (≈ 672 mM); solubility (22 °C, water, thermodynamic from solid, Solubility in H2O): < 0.19 mg/mL |
| C1=CCC(c2cccnc2)NC1 (centres unmarked) [Anatabine] | 217 (≈ 1350 mM) | 442 (≈ 2760 mM) | 490 (≈ 3060 mM) | 444 (≈ 2770 mM) | 193 (≈ 1200 mM) | 100 (≈ 624 mM) |  |  |  | solubility [7]: 512 mg/mL (≈ 3200 mM) |
| C=C1CC/C=C(/C)CC[C@@H]2[C@@H]1CC2(C)C [Caryophyllene] |  |  |  |  |  |  |  |  |  | Solubility in MeOH/H2O (7:3) [12]: NS (not soluble, insoluble in the solvent at the tested concentration range (0.19–558 mg/mL)); Solubility in EtOH [13]: 196 mg/mL (≈ 959 mM); Solubility in MeOH [14]: 36.2 mg/mL (≈ 177 mM); Solubility in H2O [15]: NS (not soluble, insoluble in the solvent at the tested concentration range (0.19–558 mg/mL)) |
| CN1C(=O)CC[C@H]1c1cccnc1 [Cotinine] |  |  |  |  |  |  | 235 (≈ 1330 mM) | 145 (≈ 823 mM) |  | solubility [1]: < 0.19 mg/mL; solubility [16]: 208 mg/mL (≈ 1180 mM); solubility [17]: 139 mg/mL (≈ 789 mM); solubility [18]: 203 mg/mL (≈ 1150 mM); solubility [19]: 190 mg/mL (≈ 1080 mM) |
| CC(C)=CCC/C(C)=C/CC/C(C)=C/CO [Farnesol] |  |  |  |  |  |  | 466 (≈ 2100 mM) | < 0.19 | 400 (≈ 1800 mM) | solubility [16]: 348 mg/mL (≈ 1560 mM); solubility [17]: 0.75 mg/mL (≈ 3.37 mM); solubility [18]: 382 mg/mL (≈ 1720 mM); solubility [19]: 376 mg/mL (≈ 1690 mM) |
| C=CC(C)(O)CCC=C(C)C (centres unmarked) [Linalool] |  |  |  |  |  |  | 462 (≈ 3000 mM) | 0.57 (≈ 3.7 mM) | 422 (≈ 2740 mM) | solubility [16]: 462 mg/mL (≈ 3000 mM); solubility [17]: 77.3 mg/mL (≈ 501 mM); solubility [18]: 440 mg/mL (≈ 2850 mM); solubility [19]: 454 mg/mL (≈ 2940 mM) |
| CCCCC/C=C\C/C=C\CCCCCCCC(=O)O [Linoleic acid] | 374 (≈ 1330 mM) | 504 (≈ 1800 mM) | 558 (≈ 1990 mM) | 526 (≈ 1880 mM) | < 0.19 | < 0.19 |  |  |  | solubility [7]: 502 mg/mL (≈ 1790 mM) |
| CC1=C[C@H](O)CC(C)(C)[C@H]1/C=C/C(C)=C/C=C/C(C)=C/C=C/C=C(C)/C=C/C=C(C)/C=C/C1=C(C)C[C@@H](O)CC1(C)C [Lutein] | < 0.19 | < 0.19 | < 0.19 | < 0.19 | < 0.19 | < 0.19 |  |  |  | Solubility in CH2Cl2/MeOH (4:1) [23]: 4.66 mg/mL (≈ 8.19 mM); Solubility in CH2Cl2/MeOH (4:1) (solvent CH2Cl2/MeOH (4:1, v/v); room temperature (21–23 °C); listed as lutein): < 100 mg/mL |
| c1cncc(C2=NCCC2)c1 [Myosmine] | 4.27 (≈ 29.2 mM) | 194 (≈ 1330 mM) | 418 (≈ 2860 mM) | 356 (≈ 2440 mM) | 231 (≈ 1580 mM) | 180 (≈ 1230 mM) |  |  |  | solubility [7]: 175 mg/mL (≈ 1200 mM) |
| C=CC(=C)CCCC(C)CCCC(C)CCCC(C)C (centres unmarked) [Neophytadiene] |  |  |  |  |  |  |  |  |  | Solubility in MeOH/H2O (7:3) [12]: NS (not soluble, insoluble in the solvent at the tested concentration range (0.19–558 mg/mL)); Solubility in EtOH [13]: 57.5 mg/mL (≈ 206 mM); Solubility in MeOH [14]: 4.08 mg/mL (≈ 14.6 mM); Solubility in H2O [15]: NS (not soluble, insoluble in the solvent at the tested concentration range (0.19–558 mg/mL)) |
| NC(=O)c1cccnc1 [Nicotinamide] |  | < 0.19 | 20.8 (≈ 170 mM) |  | 114 (≈ 933 mM) |  | 66.3 (≈ 543 mM) | 150 (≈ 1230 mM) | < 0.19 | Solubility in CH2Cl2/MeOH (4:1) [23]: 37.3 mg/mL (≈ 305 mM); Solubility in CH2Cl2/MeOH (4:1) (solvent CH2Cl2/MeOH (4:1, v/v); room temperature (21–23 °C); listed as nicotinamide): < 100 mg/mL |
| O=C(O)c1cccnc1 [Nicotinic acid] |  |  |  |  |  |  | 6.71 (≈ 54.5 mM) | 3.1 (≈ 25.2 mM) | < 0.19 | solubility [2]: < 0.19 mg/mL; solubility [3]: 3.51 mg/mL (≈ 28.5 mM); solubility [4]: 2.85 mg/mL (≈ 23.1 mM) |
| c1cncc([C@@H]2CCCN2)c1 [Nornicotine] | 358 (≈ 2420 mM) | 422 (≈ 2850 mM) | 396 (≈ 2670 mM) | 428 (≈ 2890 mM) | 418 (≈ 2820 mM) | 416 (≈ 2810 mM) |  |  |  | solubility [7]: 412 mg/mL (≈ 2780 mM) |
| C[C@@H]1O[C@@H](OC[C@H]2O[C@@H](Oc3c(-c4ccc(O)c(O)c4)oc4cc(O)cc(O)c4c3=O)[C@H](O)[C@@H](O)[C@@H]2O)[C@H](O)[C@H](O)[C@H]1O [Rutin] |  |  |  |  |  |  | 49 (≈ 80.3 mM) | < 0.19 | < 0.19 | solubility [17]: 0.52 mg/mL (≈ 0.852 mM); solubility [18]: < 0.19 mg/mL; solubility [19]: 6.67 mg/mL (≈ 10.9 mM); Solubility in CH2Cl2/MeOH (4:1) [23]: 3.82 mg/mL (≈ 6.26 mM); Solubility in CH2Cl2/MeOH (4:1) (solvent CH2Cl2/MeOH (4:1, v/v); room temperature (21–23 °C); listed as rutin): < 100 mg/mL |
| C=C[C@](C)(O)CC[C@@H]1[C@@]2(C)CCCC(C)(C)[C@@H]2CC[C@@]1(C)O [Sclareol] |  |  |  |  |  |  | 65.7 (≈ 213 mM) | < 0.19 | 3.76 (≈ 12.2 mM) | solubility [16]: 219 mg/mL (≈ 710 mM); solubility [17]: 3.17 mg/mL (≈ 10.3 mM); solubility [18]: 58 mg/mL (≈ 188 mM); solubility [19]: 75.7 mg/mL (≈ 245 mM) |
| CC(C)=CCC/C(C)=C/CC/C(C)=C/CC/C(C)=C/CC/C(C)=C/CC/C(C)=C/CC/C(C)=C/CC/C(C)=C/CC/C(C)=C/CO [Solanesol] |  |  |  |  |  |  |  |  |  | Solubility in CH2Cl2/MeOH (4:1) [23]: 203 mg/mL (≈ 322 mM); Solubility in MeOH/H2O (7:3) [12]: NS (not soluble, insoluble in the solvent at the tested concentration range (0.19–558 mg/mL)); Solubility in CH2Cl2 (solvent dichloromethane (CH2Cl2); room temperature (21–23 °C)): 235 mg/mL (≈ 372 mM); Solubility in EtOH [13]: 3.31 mg/mL (≈ 5.24 mM); Solubility in C6H14 (solvent hexane (C6H14); room temperature (21–23 °C); 2 mg compound, solvent added until dissolution or 10.0 mL): 42.0 mg/mL (≈ 66.6 mM); Solubility in MeOH [14]: 0.51 mg/mL (≈ 0.808 mM); Solubility in H2O [15]: NS (not soluble, insoluble in the solvent at the tested concentration range (0.19–558 mg/mL)) |
| CC(C)=CCC/C(C)=C/CC/C(C)=C/CC/C=C(\C)CC/C=C(\C)CCC=C(C)C [Squalene] | 446 (≈ 1090 mM) | 474 (≈ 1150 mM) | 5.94 (≈ 14.5 mM) | 0.22 (≈ 0.536 mM) | < 0.19 | < 0.19 |  |  |  | solubility [7]: 472 mg/mL (≈ 1150 mM) |
